Read-outs that look alike come from different tables or passages of the source.

Series [1] concerns 12 permanent human tumor cell lines. Description: Propidium iodide-based cytotoxicity assay. The format is cell-based. The source says:
(§1) . The cell lines included intestinal (2), stomach (1), lung (3), breast (2), melanoma (2), ovary (1), kidney (1) and uterus (1) tumor cell lines. […]. Emphasis is furthermore to be given to the oral bioavailability of the indole compounds according to the invention. […]

The test system of series [2] is human glioma cell line U373. The experiment in a line: XTT cytotoxicity test, U373. The settings on record: U373 MG, 45 h, read-out: IC50 U373. Background: Tetrazolium dyes change colour on reduction, which living cells bring about.
Another series has as its system human melanoma MEXF 989. The experiment in a line: Human tumor xenograft MEXF 989 in naked mice. The settings on record: MEXF 989, oral, 2 weeks, 5 administrations per week. The format is in vivo. The source says:
(§2) For the in vivo experiments on naked mice, subcutaneously transplanted tumor fragments of the human melanoma MEXF 989 and/or the rhabdomyosarcoma SXF 463 were used. […]; Monday to Friday). […]. The cell lines included intestinal (2), stomach (1), lung (3), breast (2), melanoma (2), ovary (1), kidney (1) and uterus (1) tumor cell lines. […]. Emphasis is furthermore to be given to the oral bioavailability of the indole compounds according to the invention. […]
In general terms: Xenograft models place foreign cells or tissue in a host animal.

The test system of a further series is rhabdomyosarcoma SXF 463. The experiment in a line: Human tumor xenograft SXF 463 in naked mice. It counts as in vivo. The settings on record: SXF 463, oral, 200 mg/kg, 2 weeks.
Text: as §2

Series [3] deals with human cervical carcinoma cell line KB/HeLa. The experiment in a line: XTT cytotoxicity test, KB/HeLa. It counts as cell-based.
In another series the test system is RKO p21 cells. Description: RKOp21 model, XTT assay. The settings on record: Homo sapiens; Table 2; read-out: RKP p21 induced IC50. It counts as cell-based. The source says:
The model used for examining the cell cycle-specific action was the RKOp21 cell system (M. Schmidt et al. Oncogene19(20):2423-9, 2000). RKO is a human colon carcinoma line in which the cell cycle inhibitor p21^wafl is expressed induced by the ecdysone expression system and leads to an arrest of the cell cycle specifically in G1 and G2. Nonspecific substances inhibit proliferation independently of whether the RKO cell is arrested in G1 or G2 or not. In contrast, cell cycle-specific substances, such as, for example, tubulin inhibitors, are only cytotoxic if the cells are not arrested and the cell cycle is in progress. […] This underlines the arrest of the cell cycle in […] already found in the FACS analyses, and a cell cycle-specific action of the compounds tested.
The assay is carried out in 96-well plates. […] Comparison of the activity on induced and non-induced cells allows conclusions to be drawn about the mechanism of action (cell cycle specificity) of the therapeutics. Non-induced [sic] cells are sown at a cell count which is about four times higher than that of non-induced cells since, compared to non-induced cells, there is no further division during the assay (2×10^4 cells/well induced, about 0.6×10^4 cells/well not induced). The controls are untreated cells (+/− induction). Induction is carried out using 3 μM of muristerone A. On day 1, the cells are plated (+/− muristerone A) and incubated at 37° C. for 24 h. On day 2, the test substance is added (control DMSO) and incubation at 37° C. is continued for another 48 h, after which a standard XTT assay is carried out.

In series [4] the test system is human glioblastoma cell line U373. Description: Cell cycle analysis by FACS. The settings on record: U373, treated 24 h, FIG. 2.
The nature of series [5]: Tolerability and oral administration in naked mice. It counts as in vivo.
Text: as §1

For series [6], the system named is human glioma cell line U118. Description: XTT cytotoxicity test, U118. The settings on record: 45 h, read-out: IC50 U118.
Series [7] deals with human glioma cell line A-172. Description: XTT cytotoxicity test, A-172. The settings on record: A 172, 45 h, read-out: IC50 A-172.
For another series, the system named is rat glioma cell line C6. Description: XTT cytotoxicity test, C6. The settings on record: 45 h, read-out: IC50 C6.

On to `COc1ccc2[nH]c(C(=O)c3ccccc3)cc2c1` [Example D-64131, 5-methoxy-1H-2-indolylphenyl-1-methanone], for which the IC50 is 0.34 µM in [1] (12 human tumor cell lines, read-out: average IC50 for all cell lines examined); roughly 4 µM in series [1] (lung and stomach tumor cell lines, read-out: IC50); 0.004 µM in series [1] (melanoma, intestinal and kidney tumor cells, read-out: IC50); 0.022 µM in [2]; 0.024 µM in series [3] (45 h, read-out: IC50 KB/HeLa); 0.024 µM in series [3] (read-out: Zytotoxizität KB/HeLa IC50). The IC50 was found to be 0.015 µM in the series on RKO p21 cells, 0.024 µM in [6], 0.051 µM in series [7] and 0.0965 µM in the series with rat glioma cell line C6. Moreover, the growth inhibition is given as 66% in the series with human melanoma MEXF 989 (100 mg/kg/day) and 81% in the series with human melanoma MEXF 989 (200 mg/kg/day). Also, in the series on rhabdomyosarcoma SXF 463, the “growth inhibition relative to the control” value is reported as 83%. Also, in [4], the “cells in the metaphase of mitotic division (M-phase)” value is listed as “concentration-dependent arrest of the cells in mitosis”. Besides, in [5] (concluded from oral activity), the oral bioavailability result is “orally bioavailable”. Further, the tolerated maximum dose in [5] (intraperitoneal injection, administered weekly) is 400 mg/kg. In [5] (p.o. 100 and 200 mg/kg, Qdx5 for 2 weeks), the tolerability entry is “tolerated very well”.

For the origin of these results see patent publication US20020091124A1, “2-acyl indole derivatives and their use as antitumor agents” (priority 2000, published 2002).
